# Test results reported in paper PMC9324262, “Selective CDK9 Inhibition by Natural Compound Toyocamycin in Cancer Cells” (Cancers, 2022).
# “And” between values parts separate entries of the source, which are not always exact repeats. Equal entries are not always repeated.
# How the values were obtained:
# RNA-Pol II Ser2-P = experiment: Western blot, RNA Pol II and phospho-Pol II Ser2; format: cell-based, human; conditions: 6 h
# Description: YB5 cells were harvested in 50 mM Tris-HCl, 1% NP-40, 1 mM EDTA, 1 mM EGTA, 0.25% sodium deoxycholate, 150 mM NaCl, 50 mM sodium fluoride, and 1X Complete protease cocktail (Roche, Basel, Switzerland) with 1 mM PMSF. The total protein concentration was measured in all samples by standard BCA protocol (Pierce-23225, Thermo Scientific, Waltham, MA, USA) to ensure that an equal amount of protein was added to each sample. Protein extracts were run on 12% SDS–PAGE precast gels (Bio-Rad, Hercules, CA, USA, 345-0118). Proteins were transferred to polyvinylidene difluoride (PVDF) membranes in 10 mmol/L CAPS (pH-11) containing 10% methanol and detected by using specific primary antibodies, horseradish peroxidase–conjugated secondary antibodies (GE Healthcare, Chicago, IL, USA), and an enhanced chemiluminescence reagent (Pierce). PVDF membranes were incubated with specific primary antibodies (actin—A5441, Sigma, St. Louis, MO, USA; HA-tagged—H9608, Sigma; FLAG-tagged—F3165, Sigma). FLAG- and HA-tagged CDK9 plasmids were a generous gift from Dr Bassel E. Sawaya (Temple University). For CDK9 target modulation, HCT116 colon cancer cells were treated with toyocamycin or known CDK9 inhibitor BAY1251152 (Selleckchem, Houston, TX, USA). Whole cell extracts were obtained by lysing cells with 25 mM Tris (pH 7.3) and 1% sodium dodecyl sulfate (SDS). After sonication, total protein concentrations were determined using Bradford protein assay. The following primary antibodies were used to investigate the effect of CDK9 inhibition: Pol II against the N-term region (sc-55492, Santa Cruz, Dallas, TX, USA), Pol II against the C-term region (39097, Active motif, Carlsbad, CA, USA), Pol II phospho CTD ser2 (14-9802-82, Invitrogen, Waltham, MA, USA), Rb (ab181616, Abcam, Cambridge, UK), Rb phospho T826 (ab133446, Abcam, Cambridge, UK), CDK9 (ab39098, Abcam, Cambridge, UK), and actin (ab1801, Abcam, Cambridge, UK). Images were acquired with an Image Quant LAS4000 device from GE Healthcare Life Sciences. Band intensity quantifications were calculated using ImageJ software, edition 1.53 [27].
# YB5 cells = experiment: RNA sequencing, differential gene expression; format: cell-based, human
# Description: Sequenced reads were aligned to the GRCh38.100 reference genome using STAR version 2.7.5a and gene-level counts were generated by setting the “quantMode GeneCounts” flag. Differential expression analysis was performed using EdgeR version 3.32.1.. The “filterByExpr” function in EdgeR was then used to determine genes with sufficiently large counts to be included in downstream differential expression testing. The filtered count matrix was then normalized using TMM normalization and differential expression testing was performed using the “glmTreat” function with the minimal required fold-change threshold set to “log2(1)” for significant differential gene expression (FDR < 0.1).
# CDK9/Cyclin T1 = biological target: T1, CDK9/Cyclin T1 (Homo sapiens, UniProt P50750); experiment: in vitro kinase assay CDK9/Cyclin T1 (Kinase-Glo Plus luminescence); format: biochemical
# T1 construct: purchased BPS Bioscience
# T1 sequence (P50750 whole entry): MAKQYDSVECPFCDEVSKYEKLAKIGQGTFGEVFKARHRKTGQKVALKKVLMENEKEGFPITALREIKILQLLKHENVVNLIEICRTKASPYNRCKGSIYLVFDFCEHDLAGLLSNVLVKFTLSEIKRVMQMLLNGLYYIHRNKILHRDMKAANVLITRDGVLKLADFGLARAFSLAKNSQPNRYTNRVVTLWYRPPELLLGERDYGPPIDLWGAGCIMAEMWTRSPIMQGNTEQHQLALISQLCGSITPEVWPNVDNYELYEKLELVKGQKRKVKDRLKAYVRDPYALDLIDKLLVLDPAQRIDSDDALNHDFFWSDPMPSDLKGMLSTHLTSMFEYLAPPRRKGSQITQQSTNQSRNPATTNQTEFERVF
# T1 sequence (O60563 whole entry partner): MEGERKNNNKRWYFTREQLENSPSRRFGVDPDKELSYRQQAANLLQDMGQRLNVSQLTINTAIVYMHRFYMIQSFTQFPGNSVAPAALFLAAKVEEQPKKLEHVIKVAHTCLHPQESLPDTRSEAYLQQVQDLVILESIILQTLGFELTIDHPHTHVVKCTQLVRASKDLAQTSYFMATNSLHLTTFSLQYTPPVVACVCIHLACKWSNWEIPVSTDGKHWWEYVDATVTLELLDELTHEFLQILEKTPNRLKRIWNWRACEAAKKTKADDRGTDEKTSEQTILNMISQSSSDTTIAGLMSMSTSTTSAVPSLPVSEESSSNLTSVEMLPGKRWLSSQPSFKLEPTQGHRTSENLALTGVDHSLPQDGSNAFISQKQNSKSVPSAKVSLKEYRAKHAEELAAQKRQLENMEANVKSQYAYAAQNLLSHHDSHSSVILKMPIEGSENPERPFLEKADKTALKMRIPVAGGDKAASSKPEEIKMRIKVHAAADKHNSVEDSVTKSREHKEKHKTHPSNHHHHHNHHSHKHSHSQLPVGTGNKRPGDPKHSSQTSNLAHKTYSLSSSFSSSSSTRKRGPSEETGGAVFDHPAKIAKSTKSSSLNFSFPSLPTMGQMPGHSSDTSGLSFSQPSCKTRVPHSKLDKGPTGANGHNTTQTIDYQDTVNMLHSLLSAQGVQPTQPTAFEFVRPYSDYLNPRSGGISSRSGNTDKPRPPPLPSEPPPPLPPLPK
# Description: (§1) The in vitro enzymatic assays were conducted at BPS Bioscience. CDK9/Cyclin T1, CDK2/Cyclin 2A, CDK4/Cyclin D3, and CDK6/Cyclin D3 enzymatic activities were tested with an ATP Kinase-Glo Plus Luminescence kinase assay kit (Promega, V6073, Madison, WI, USA), while the CDK7/Cyclin H/MAT1 activities were tested using ADP-Glo Kinase (Promega, V6930). These assays measure kinase activity by quantifying the amount of ATP or ADP remaining in solution following a kinase reaction. The luminescent signal from the assay is correlated to the amount of ATP or ADP present and is inversely correlated to the kinase activity. The compounds were diluted to 10% DMSO and were added to the reaction so that the final concentration of DMSO was 1% in all reactions. All enzymatic reactions were conducted at 30 °C for 60 min. […] After the enzymatic reaction, the luminescence signal was measured using a BioTek Synergy 2 microplate reader (Agilent, Santa Clara, CA, USA). Kinase activity assays were performed in duplicate at each concentration and the percent of kinase activity was calculated as a ratio of luminescence intensities in the absence or in presence of the compounds. […] IC50 values were determined by the concentration causing a half-maximal percent activity (BPS Bioscience, San Diego, CA, USA).
# [1] = system: 451-Lu-BR human melanoma cells; experiment: proliferation assay by cell counting; format: cell-based
# Description: Proliferation assays were performed for 451-Lu-BR human melanoma cells in response to toyocamycin exposure. First, 20,000 cells were seeded per well in 24-well plates. Cells were treated with either DMSO (<0.01% final concentration) or various toyocamycin concentrations. Cell proliferation was assessed by cell counting using a hemocytometer (n = 3) after 24, 48, and 72 h of treatment. The data were plotted as the total number of cells in response to toyocamycin for each treatment duration relative to DMSO treated cells.
# CDK6/Cyclin D3 = biological target: T2, CDK6/Cyclin D3 (Homo sapiens, UniProt Q00534); experiment: in vitro kinase assay CDK6/Cyclin D3 (Kinase-Glo Plus); format: biochemical
# T2 construct: purchased BPS Bioscience
# T2 sequence (Q00534 whole entry): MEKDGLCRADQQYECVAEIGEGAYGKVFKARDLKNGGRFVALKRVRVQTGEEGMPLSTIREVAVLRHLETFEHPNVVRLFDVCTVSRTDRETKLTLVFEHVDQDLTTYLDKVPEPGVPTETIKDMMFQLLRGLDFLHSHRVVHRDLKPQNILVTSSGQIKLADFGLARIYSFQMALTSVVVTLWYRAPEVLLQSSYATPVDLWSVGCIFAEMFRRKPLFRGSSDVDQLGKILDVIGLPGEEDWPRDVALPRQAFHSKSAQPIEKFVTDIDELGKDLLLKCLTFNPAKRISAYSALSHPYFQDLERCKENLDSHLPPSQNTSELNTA
# T2 sequence (P30281 whole entry partner): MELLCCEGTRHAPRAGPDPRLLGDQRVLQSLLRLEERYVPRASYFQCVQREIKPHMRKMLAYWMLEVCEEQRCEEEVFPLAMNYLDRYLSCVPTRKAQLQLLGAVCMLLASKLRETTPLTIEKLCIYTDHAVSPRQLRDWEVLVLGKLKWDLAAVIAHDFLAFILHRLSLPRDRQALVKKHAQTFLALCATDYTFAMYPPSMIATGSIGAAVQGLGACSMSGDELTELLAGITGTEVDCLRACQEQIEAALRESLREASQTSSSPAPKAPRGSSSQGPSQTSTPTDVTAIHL
# Description: as §1
# [2] = system: CMV promoter in YB5 cells; experiment: DNA methylation by bisulfite pyrosequencing, CMV promoter; format: cell-based, human; conditions: 0.05–50 µM, 72 h
# Source text: We analyzed DNA methylation levels on the CMV promoter region and LINE-1 repeated elements (as a marker of global DNA methylation level). After DNA extraction and bisulfite conversion, PCR amplification of regions of interest and pyrosequencing were achieved as previously described.
structure (smiles),measurement,setting,value
"N#Cc1cn([C@@H]2O[C@H](CO)[C@@H](O)[C@H]2O)c2ncnc(N)c12 [toyocamycin, 7-Deaza-7-cyanoadenosine]",RNA-Pol II ser 2 phosphorylation,"RNA-Pol II Ser2-P; HCT116, 350–500 nM",significantly reduced
same,"RNA Pol II band intensity, Pol II C-terminal antibody","RNA-Pol II Ser2-P; HCT116, above 350 nM",reduced the RNA Pol II band intensity
same,gene downregulation,"YB5 cells; 250 nM, 2 h",3.5%
same,number of genes downregulated,"YB5 cells; 250 nM, 2 h",513 genes
same,number of genes upregulated,"YB5 cells; 250 nM, 2 h",24 genes
same,number of genes downregulated,"YB5 cells; 250 nM, 10 h",2299 genes
same,number of genes upregulated,"YB5 cells; 250 nM, 10 h",1999 genes
same,level of differentially expressed genes,"YB5 cells; 250 nM, 10 h to 96 h",up to 60%
same,number of genes downregulated,"YB5 cells; 250 nM, 24 h",3651 genes
same,number of genes upregulated,"YB5 cells; 250 nM, 24 h",3387 genes
same,number of genes downregulated,"YB5 cells; 250 nM, 48 h",4377 genes
same,number of genes upregulated,"YB5 cells; 250 nM, 48 h",4449 genes
same,number of genes downregulated,"YB5 cells; 250 nM, 96 h",5061 genes
same,number of genes upregulated,"YB5 cells; 250 nM, 96 h",5050 genes
same,endogenous retrovirus (ERV) expression,YB5 cells; 24 h treatment,induced significant ERV expression
same,IC50,"CDK9/Cyclin T1; IC50, 10 µM ATP, 30 °C, 60 min",0.079 µM and 0.0795 µM
same,IC50,"CDK9/Cyclin T1; IC50, as quoted in docking section",0.08 µM
same,cell proliferation,[1]; 72 h treatment,full proliferation arrest
same,cell proliferation,"[1]; low doses, 24 h treatment",did not reduce cell proliferation
same,IC50,CDK6/Cyclin D3,> 10 µM
same,DNA methylation on CMV promoter,[2],no changes in DNA methylation
